Measurements taken from US20250114345A1, “COMPOUNDS AND COMPOSITIONS AS CBP/P300 DEGRADERS AND USES THEREOF” (Oncopia Therapeutics, Inc. d/b/a/ SK Life Science Labs, priority 2023, published 2025).

Columns and labels:
[1] = target: T1, CBP (Homo sapiens, UniProt Q92793); test: CBP degradation, HiBit technology in A549 CBP HiBit cells (24 h); assay type: cell-based; conditions: 24 hrs post treatment
T1 construct: host or cells: A549 CBP HiBit cells
Protocol: p300 and CBP degradation potency and Dmax were determined using in cell western (ICW) assay technology in H1299 cells or HiBit technology in A549 HiBit cells.
A549 P300 HiBit and A549 CBP HiBit cells were plated in separate 384-well, TC treated, white-opaque, flat-bottomed microplate. Cells were plated at a cell density of 0.2×10^4 cells per well in assay media comprised of F-12K, 10% heat inactivated FBS, and 1% penicillin/streptomycin. Assay microplates containing HiBit cells were placed in a 37° C., 5% CO2, tissue culture incubator and left to equilibrate overnight. The next day cells were treated with serial dilutions of test compound made up of 10 mM stock solutions in DMSO. 384-Well plates containing treated cells were then placed back into a 37° C., 5% CO2, tissue culture incubator. Assay microplates containing A549 P300 HiBit cells were incubated for 2 hrs post treatment before P300 destruction was assessed, while microplates containing A549 CBP HiBit cells were incubated for 24 hrs post treatment before CBP destruction was determined. On the day of each assay time point, microplates were removed from the tissue culture incubator and prepared HiBit Lytic detection buffer (Promega, cat #N3O40) was added to each plate. Plates were covered with aluminum foil and incubated for ten minutes at room temperature on an orbital shaker. After incubation, luminescent signal of each plate was measured using the Envision instrument (Perkin Elmer).

[2] = target: T2, p300 (Homo sapiens, UniProt Q09472); test: P300 degradation, HiBit technology in A549 P300 HiBit cells (2 h); assay type: cell-based; conditions: 2 hrs post treatment; for Dmax: A549, A549 P300 HiBit cells; for DC50: A549 P300 HiBit cells
T2 construct: host or cells: A549 P300 HiBit cells
T2 sequence (Q09472 whole entry): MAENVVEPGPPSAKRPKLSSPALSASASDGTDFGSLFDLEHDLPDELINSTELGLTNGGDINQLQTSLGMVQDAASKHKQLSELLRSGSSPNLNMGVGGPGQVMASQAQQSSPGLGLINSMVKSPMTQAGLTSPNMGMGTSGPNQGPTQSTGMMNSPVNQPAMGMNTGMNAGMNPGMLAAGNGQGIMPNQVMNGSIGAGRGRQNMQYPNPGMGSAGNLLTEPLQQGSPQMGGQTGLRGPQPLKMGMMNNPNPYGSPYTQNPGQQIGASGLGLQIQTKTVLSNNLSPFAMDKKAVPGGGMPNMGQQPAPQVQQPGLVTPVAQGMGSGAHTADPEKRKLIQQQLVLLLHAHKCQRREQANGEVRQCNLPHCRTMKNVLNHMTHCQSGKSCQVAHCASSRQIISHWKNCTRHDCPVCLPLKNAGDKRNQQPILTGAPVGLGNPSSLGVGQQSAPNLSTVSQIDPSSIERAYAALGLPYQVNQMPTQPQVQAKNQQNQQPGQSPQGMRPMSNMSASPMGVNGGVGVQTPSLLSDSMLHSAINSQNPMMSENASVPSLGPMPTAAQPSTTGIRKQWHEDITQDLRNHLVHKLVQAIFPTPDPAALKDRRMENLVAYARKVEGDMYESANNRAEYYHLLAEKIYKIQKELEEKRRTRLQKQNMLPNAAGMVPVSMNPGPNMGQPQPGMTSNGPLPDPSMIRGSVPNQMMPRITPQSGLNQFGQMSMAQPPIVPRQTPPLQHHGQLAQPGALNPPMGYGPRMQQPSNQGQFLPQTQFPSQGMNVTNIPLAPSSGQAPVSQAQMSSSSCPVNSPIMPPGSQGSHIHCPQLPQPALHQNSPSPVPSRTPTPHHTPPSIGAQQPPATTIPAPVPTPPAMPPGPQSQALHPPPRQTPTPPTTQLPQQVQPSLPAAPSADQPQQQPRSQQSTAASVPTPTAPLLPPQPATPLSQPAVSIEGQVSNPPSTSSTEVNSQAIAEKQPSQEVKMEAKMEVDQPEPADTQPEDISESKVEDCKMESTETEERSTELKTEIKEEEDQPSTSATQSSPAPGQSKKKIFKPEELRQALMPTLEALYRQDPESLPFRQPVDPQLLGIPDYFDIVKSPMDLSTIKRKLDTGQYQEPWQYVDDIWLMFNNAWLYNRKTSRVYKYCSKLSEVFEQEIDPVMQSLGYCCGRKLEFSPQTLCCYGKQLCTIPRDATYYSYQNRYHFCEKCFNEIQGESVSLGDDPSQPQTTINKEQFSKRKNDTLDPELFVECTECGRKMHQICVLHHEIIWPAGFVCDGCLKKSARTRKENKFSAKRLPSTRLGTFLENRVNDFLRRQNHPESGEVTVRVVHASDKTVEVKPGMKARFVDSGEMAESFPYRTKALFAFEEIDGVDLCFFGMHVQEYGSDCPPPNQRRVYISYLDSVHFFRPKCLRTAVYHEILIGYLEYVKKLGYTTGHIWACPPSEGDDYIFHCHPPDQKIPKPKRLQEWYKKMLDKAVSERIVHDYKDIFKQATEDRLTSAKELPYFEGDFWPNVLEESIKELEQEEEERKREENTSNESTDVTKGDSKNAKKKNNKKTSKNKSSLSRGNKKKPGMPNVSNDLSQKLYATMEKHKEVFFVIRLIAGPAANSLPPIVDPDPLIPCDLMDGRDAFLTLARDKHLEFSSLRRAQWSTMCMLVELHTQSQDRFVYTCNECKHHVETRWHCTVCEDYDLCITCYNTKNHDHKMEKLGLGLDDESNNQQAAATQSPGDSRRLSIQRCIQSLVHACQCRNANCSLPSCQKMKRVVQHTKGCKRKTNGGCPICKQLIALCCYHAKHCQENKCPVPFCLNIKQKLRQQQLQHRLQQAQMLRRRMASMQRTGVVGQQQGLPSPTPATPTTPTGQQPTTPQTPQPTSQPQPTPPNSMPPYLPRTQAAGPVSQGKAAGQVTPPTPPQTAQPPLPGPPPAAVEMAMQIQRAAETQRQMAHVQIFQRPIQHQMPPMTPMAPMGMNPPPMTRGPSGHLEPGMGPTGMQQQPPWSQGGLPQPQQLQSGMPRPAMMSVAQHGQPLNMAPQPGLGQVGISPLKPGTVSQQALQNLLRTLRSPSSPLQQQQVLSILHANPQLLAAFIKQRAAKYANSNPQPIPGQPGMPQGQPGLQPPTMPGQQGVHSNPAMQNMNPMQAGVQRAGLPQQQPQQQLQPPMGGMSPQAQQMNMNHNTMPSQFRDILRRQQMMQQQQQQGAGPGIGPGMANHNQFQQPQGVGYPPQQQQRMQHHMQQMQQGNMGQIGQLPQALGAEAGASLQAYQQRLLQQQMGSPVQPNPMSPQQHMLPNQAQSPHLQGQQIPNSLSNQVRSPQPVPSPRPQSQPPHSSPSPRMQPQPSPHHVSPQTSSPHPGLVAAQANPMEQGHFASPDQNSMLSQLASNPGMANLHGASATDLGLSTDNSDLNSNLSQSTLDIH
Summary of the method: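 A549 cells carrying HiBit-tagged p300 or CBP, seeded overnight at 37 °C/5% CO2, then treated with serial compound dilutions from 10 mM DMSO stocks. Incubation was 2 h for p300 and 24 h for CBP, followed by HiBit lytic detection reagent for 10 min at room temperature. Luminescence read gave degradation potency and Dmax.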

T1 sequence (Q92793 whole entry): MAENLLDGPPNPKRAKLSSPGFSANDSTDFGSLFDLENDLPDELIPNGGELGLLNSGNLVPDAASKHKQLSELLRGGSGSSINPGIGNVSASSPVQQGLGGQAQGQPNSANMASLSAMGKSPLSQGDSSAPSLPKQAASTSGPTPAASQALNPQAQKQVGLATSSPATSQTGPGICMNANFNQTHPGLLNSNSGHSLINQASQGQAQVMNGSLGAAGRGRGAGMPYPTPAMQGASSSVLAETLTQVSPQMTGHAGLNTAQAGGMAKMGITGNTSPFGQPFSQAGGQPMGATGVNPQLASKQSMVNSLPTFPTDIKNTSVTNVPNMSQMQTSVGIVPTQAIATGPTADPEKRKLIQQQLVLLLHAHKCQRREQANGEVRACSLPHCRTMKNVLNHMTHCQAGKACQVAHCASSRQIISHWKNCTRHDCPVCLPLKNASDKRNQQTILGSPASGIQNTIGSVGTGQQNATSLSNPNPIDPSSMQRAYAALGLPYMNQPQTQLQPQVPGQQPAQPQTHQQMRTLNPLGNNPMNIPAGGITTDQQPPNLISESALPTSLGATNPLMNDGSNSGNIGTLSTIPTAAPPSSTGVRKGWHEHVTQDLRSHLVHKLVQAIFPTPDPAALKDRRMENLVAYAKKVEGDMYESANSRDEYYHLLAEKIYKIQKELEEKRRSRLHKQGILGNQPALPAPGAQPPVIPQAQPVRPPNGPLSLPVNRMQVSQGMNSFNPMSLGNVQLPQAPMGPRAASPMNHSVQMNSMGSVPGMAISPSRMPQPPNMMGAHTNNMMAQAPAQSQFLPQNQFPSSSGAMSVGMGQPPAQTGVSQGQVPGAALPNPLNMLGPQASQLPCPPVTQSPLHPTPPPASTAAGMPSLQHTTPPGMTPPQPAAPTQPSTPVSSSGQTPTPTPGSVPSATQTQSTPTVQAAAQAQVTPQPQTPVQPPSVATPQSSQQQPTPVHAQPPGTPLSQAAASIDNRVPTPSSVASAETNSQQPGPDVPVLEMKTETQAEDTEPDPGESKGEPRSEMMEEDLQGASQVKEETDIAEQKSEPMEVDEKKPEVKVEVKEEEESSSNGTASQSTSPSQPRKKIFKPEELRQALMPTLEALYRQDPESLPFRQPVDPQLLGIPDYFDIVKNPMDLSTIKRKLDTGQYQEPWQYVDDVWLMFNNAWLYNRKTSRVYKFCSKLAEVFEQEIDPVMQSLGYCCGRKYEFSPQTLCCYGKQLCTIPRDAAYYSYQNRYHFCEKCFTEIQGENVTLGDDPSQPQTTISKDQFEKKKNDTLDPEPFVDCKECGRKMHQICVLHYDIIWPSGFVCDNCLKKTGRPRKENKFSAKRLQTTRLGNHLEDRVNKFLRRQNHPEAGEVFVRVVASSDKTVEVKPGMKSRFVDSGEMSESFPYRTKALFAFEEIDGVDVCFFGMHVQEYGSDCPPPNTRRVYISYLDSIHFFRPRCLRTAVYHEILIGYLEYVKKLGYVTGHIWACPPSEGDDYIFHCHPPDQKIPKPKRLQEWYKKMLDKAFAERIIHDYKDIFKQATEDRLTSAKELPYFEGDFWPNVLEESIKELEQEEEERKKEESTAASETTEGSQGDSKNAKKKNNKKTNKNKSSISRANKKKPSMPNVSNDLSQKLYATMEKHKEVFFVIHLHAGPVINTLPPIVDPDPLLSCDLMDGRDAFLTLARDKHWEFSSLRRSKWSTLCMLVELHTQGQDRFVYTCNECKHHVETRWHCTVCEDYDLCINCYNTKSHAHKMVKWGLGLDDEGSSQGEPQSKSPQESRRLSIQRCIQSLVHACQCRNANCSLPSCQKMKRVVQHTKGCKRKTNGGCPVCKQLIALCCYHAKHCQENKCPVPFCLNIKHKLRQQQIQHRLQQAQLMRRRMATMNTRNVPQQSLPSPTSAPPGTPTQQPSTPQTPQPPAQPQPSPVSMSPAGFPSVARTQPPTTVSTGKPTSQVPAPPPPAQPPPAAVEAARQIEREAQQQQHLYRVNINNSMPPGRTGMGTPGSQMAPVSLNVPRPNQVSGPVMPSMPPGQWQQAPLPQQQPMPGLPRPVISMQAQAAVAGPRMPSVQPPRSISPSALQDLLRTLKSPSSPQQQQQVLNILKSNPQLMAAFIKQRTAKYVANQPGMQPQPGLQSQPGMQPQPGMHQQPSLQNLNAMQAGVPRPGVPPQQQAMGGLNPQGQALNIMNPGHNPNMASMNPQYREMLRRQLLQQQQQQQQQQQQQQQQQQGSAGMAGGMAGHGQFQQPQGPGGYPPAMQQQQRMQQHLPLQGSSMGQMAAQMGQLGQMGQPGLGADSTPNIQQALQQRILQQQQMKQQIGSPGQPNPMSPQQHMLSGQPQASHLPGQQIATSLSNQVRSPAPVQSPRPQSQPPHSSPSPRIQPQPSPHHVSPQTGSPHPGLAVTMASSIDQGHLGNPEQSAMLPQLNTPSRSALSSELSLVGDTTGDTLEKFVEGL

Cc1cc(-c2cc3cccc(-c4cc(C(C)C)c5c(c4)n(C)c(=O)n5C)c3cn2)cnc1C(=O)NCC#Cc1ccc2occ(C3CCC(=O)NC3=O)c2c1 (stereo not shown) [Example A35, N-(3-(3-(2,6-Dioxopiperidin-3-yl)benzofuran-5-yl)prop-2-yn-1-yl)-5-(8-(7-isopropyl-1,3-dimethyl-2-oxo-2,3-dihydro-1H-benzo[d]imidazol-5-yl)isoquinolin-3-yl)-3-methylpicolinamide]
DC50 [1]: 10 to 99 nM
Dmax [1]: 20 to 39%

CC(C)c1cc(-c2cccc3cc(-c4ccc(C(=O)NCC#Cc5ccc6c(c5)n(C)c(=O)n6C5CCC(=O)NC5=O)nc4)ncc23)cc2c1n(C)c(=O)n2C (stereo not shown) [Example A36, N-(3-(1-(2,6-Dioxopiperidin-3-yl)-3-methyl-2-oxo-2,3-dihydro-1H-benzo[d]imidazol-5-yl)prop-2-yn-1-yl)-5-(8-(7-isopropyl-1,3-dimethyl-2-oxo-2,3-dihydro-1H-benzo[d]imidazol-5-yl)isoquinolin-3-yl)picolinamide]
DC50 [1]: > 1000 nM
Dmax [1]: < 20%

Cc1cc2c(N3CCCc4cc(-c5ccc(C(=O)NCC#Cc6ccc7occ(C8CCC(=O)NC8=O)c7c6)nc5)ccc43)cc(C3CCOCC3)cc2n(C)c1=O (stereo not shown) [Example B140, 5-(1′,3′-dimethyl-2′-oxo-7′-(tetrahydro-2H-pyran-4-yl)-1′,2′,3,4-tetrahydro-2H-[1,5′-biquinolin]-6-yl)-N-(3-(3-(2,6-dioxopiperidin-3-yl)benzofuran-5-yl)prop-2-yn-1-yl) picolinamide]
Dmax [2]: 60 to 79%
DC50 [2]: 1 to 9.9 nM

Cc1cc2c(N3CCCc4cc(-c5ccc(C(=O)NCC#Cc6ccc7occ(C8CCC(=O)NC8=O)c7c6)nc5)c(F)cc43)cc(C3CCOCC3)cc2n(C)c1=O (stereo not shown) [Example B143, N-(3-(3-(2,6-dioxopiperidin-3-yl)benzofuran-5-yl)prop-2-yn-1-yl)-5-(7-fluoro-1′,3′-dimethyl-2′-oxo-7′-(tetrahydro-2H-pyran-4-yl)-1′,2′,3,4-tetrahydro-2H-[1,5′-biquinolin]-6-yl) picolinamide]
Dmax [2]: > 80%
DC50 [2]: 1 to 9.9 nM

CCc1cc(-c2ncc3c(n2)CCCN3c2cc(C3CCOCC3)cc3c2cc(C)c(=O)n3C)cnc1C(=O)NCC#Cc1ccc2occ(C3CCC(=O)NC3=O)c2c1 (stereo not shown) [Example B144, 5-(5-(1,3-dimethyl-2-oxo-7-(tetrahydro-2H-pyran-4-yl)-1,2-dihydroquinolin-5-yl)-5,6,7,8-tetrahydropyrido[3,2-d]pyrimidin-2-yl)-N-(3-(3-(2,6-dioxopiperidin-3-yl)benzofuran-5-yl)prop-2-yn-1-yl)-3-ethylpicolinamide]
Dmax [2]: > 80%
DC50 [2]: 1 to 9.9 nM

Cc1cc2c(N3CCOc4cc(-c5ccc(C(=O)NCC#Cc6ccc7occ(C8CCC(=O)NC8=O)c7c6)nc5)c(F)cc43)cccc2n(C)c1=O (stereo not shown) [Example B145, 5-(4-(1,3-dimethyl-2-oxo-1,2-dihydroquinolin-5-yl)-6-fluoro-3,4-dihydro-2H-benzo[b][1,4]oxazin-7-yl)-N-(3-(3-(2,6-dioxopiperidin-3-yl)benzofuran-5-yl)prop-2-yn-1-yl) picolinamide]
Dmax [2]: > 80%
DC50 [2]: 1 to 9.9 nM

COC1CN(c2cc3c(cc(C)c(=O)n3C)c(-c3cccc4cc(-c5ccc(C(=O)NCC#Cc6ccc7occ(C8CCC(=O)NC8=O)c7c6)nc5)ncc34)n2)C1 (stereo not shown) [Example B146, N-(3-(3-(2,6-dioxopiperidin-3-yl)benzofuran-5-yl)prop-2-yn-1-yl)-5-(8-(7-(3-methoxyazetidin-1-yl)-1,3-dimethyl-2-oxo-1,2-dihydro-1,6-naphthyridin-5-yl)isoquinolin-3-yl) picolinamide]
Dmax [2]: > 80%
DC50 [2]: 1 to 9.9 nM

COc1cc(N2CCOc3cc(-c4ccc(C(=O)NCC#Cc5ccc6occ(C7CCC(=O)NC7=O)c6c5)nc4)c(F)cc32)c2cc(C)c(=O)n(C)c2c1 (stereo not shown) [Example B147, N-(3-(3-(2,6-dioxopiperidin-3-yl)benzofuran-5-yl)prop-2-yn-1-yl)-5-(6-fluoro-4-(7-methoxy-1,3-dimethyl-2-oxo-1,2-dihydro-quinolin-5-yl)-3,4-dihydro-2H-benzo[b][1,4]oxazin-7-yl)picolinamide]
Dmax [2]: > 80%
DC50 [2]: 1 to 9.9 nM

CCc1cc(N2CCOc3cc(-c4ccc(C(=O)NCC#Cc5ccc6occ(C7CCC(=O)NC7=O)c6c5)nc4)c(F)cc32)c2cc(C)c(=O)n(C)c2c1 (stereo not shown) [Example B149, N-(3-(3-(2,6-dioxopiperidin-3-yl)benzofuran-5-yl)prop-2-yn-1-yl)-5-(4-(7-ethyl-1,3-dimethyl-2-oxo-1,2-dihydroquinolin-5-yl)-6-fluoro-3,4-dihydro-2H-benzo[b][1,4]oxazin-7-yl)picolinamide]
Dmax [2]: > 80%
DC50 [2]: 1 to 9.9 nM

Cc1cc2c(N3CCCc4nc(-c5ccc(C(=O)NCC#Cc6ccc7occ(C8CCC(=O)NC8=O)c7c6)nc5)ncc43)cc(C3CCN(C(=O)C4CCOCC4)CC3)cc2n(C)c1=O (stereo not shown) [Example B150, 5-(5-(1,3-dimethyl-2-oxo-7-(1-(tetrahydro-2H-pyran-4-carbonyl)piperidin-4-yl)-1,2-dihydro-quinolin-5-yl)-5,6,7,8-tetrahydropyrido[3,2-d]pyrimidin-2-yl)-N-(3-(3-(2,6-dioxopiperidin-3-yl)benzofuran-5-yl)prop-2-yn-1-yl) picolinamide]
Dmax [2]: 60 to 79%
DC50 [2]: 1 to 9.9 nM

Cc1cc(N2CCCc3nc(-c4ccc(C(=O)NCC#Cc5ccc6occ(C7CCC(=O)NC7=O)c6c5)nc4)ncc32)c2cc(C)c(=O)n(C)c2c1 (stereo not shown) [Example B151, N-(3-(3-(2,6-dioxopiperidin-3-yl)benzofuran-5-yl)prop-2-yn-1-yl)-5-(5-(1,3,7-trimethyl-2-oxo-1,2-dihydroquinolin-5-yl)-5,6,7,8-tetrahydro-pyrido[3,2-d]pyrimidin-2-yl)picolinamide]
Dmax [2]: > 80%
DC50 [2]: 1 to 9.9 nM

CCc1cc(N(C)c2ccn(-c3cnc(C(=O)NCC#Cc4cccc(NC5CCC(=O)NC5=O)c4)c(C)c3)c(=O)c2)c2cc(C)c(=O)n(C)c2c1 (stereo not shown) [Example B152, N-(3-(3-((2,6-dioxopiperidin-3-yl)amino)phenyl)prop-2-yn-1-yl)-4-((7-ethyl-1,3-dimethyl-2-oxo-1,2-dihydroquinolin-5-yl) (methyl)amino)-5′-methyl-2-oxo-2H-[1,3′-bipyridine]-6′-carboxamide]
Dmax [2]: > 80%
DC50 [2]: 1 to 9.9 nM

Cc1cc2c(N3CCCc4nc(-c5cnc(C(=O)NCC#Cc6ccc7occ(C8CCC(=O)NC8=O)c7c6)c(Cl)c5)ncc43)cccc2n(C)c1=O (stereo not shown) [Example B155, 3-chloro-5-(5-(1,3-dimethyl-2-oxo-1,2-dihydroquinolin-5-yl)-5,6,7,8-tetrahydro-pyrido[3,2-d]pyrimidin-2-yl)-N-(3-(3-(2,6-dioxopiperidin-3-yl)benzofuran-5-yl)prop-2-yn-1-yl)picolinamide]
Dmax [2]: > 80%
DC50 [2]: 1 to 9.9 nM

Cc1cc2c(N3CCCc4nc(-c5ccc(C(=O)NCC#Cc6cc7c(C8CCC(=O)NC8=O)cccc7o6)nc5)ncc43)cc(C3CCC(F)(F)CC3)nc2n(C)c1=O (stereo not shown) [Example B158, 5-(5-(2-(4,4-difluorocyclohexyl)-6,8-dimethyl-7-oxo-7,8-dihydro-1,8-naphthyridin-4-yl)-5,6,7,8-tetrahydropyrido[3,2-d]pyrimidin-2-yl)-N-(3-(4-(2,6-dioxopiperidin-3-yl)benzofuran-2-yl)prop-2-yn-1-yl)picolinamide]
Dmax [2]: > 80%
DC50 [2]: 10 to 99 nM

Cc1cc2c(N3CCCc4nc(-c5ccc(C(=O)NCC#Cc6cc7c(C8CCC(=O)NC8=O)cccn7n6)nc5)ncc43)cc(C3CCOCC3)cc2n(C)c1=O (stereo not shown) [Example B170, 5-(5-(1,3-dimethyl-2-oxo-7-(tetrahydro-2H-pyran-4-yl)-1,2-dihydroquinolin-5-yl)-5,6,7,8-tetrahydropyrido[3,2-d]pyrimidin-2-yl)-N-(3-(4-(2,6-dioxopiperidin-3-yl)pyrazolo[1,5-a]pyridin-2-yl)prop-2-yn-1-yl)picolinamide]
Dmax [2]: 20 to 39%
DC50 [2]: 1 to 9.9 nM

Cc1cc2c(N3CCCc4nc(-c5ccc(C(=O)NCC#Cc6cc7c(C8CCC(=O)NC8=O)cccc7o6)nc5)ncc43)cc(C3CC3)cc2n(C)c1=O (stereo not shown) [Example B171, 5-(5-(7-cyclopropyl-1,3-dimethyl-2-oxo-1,2-dihydroquinolin-5-yl)-5,6,7,8-tetrahydropyrido [3,2-d]pyrimidin-2-yl)-N-(3-(4-(2,6-dioxo-piperidin-3-yl)benzofuran-2-yl)prop-2-yn-1-yl)picolinamide]
Dmax [2]: > 80%
DC50 [2]: 1 to 9.9 nM

Cc1cc2c(N3CCCc4nc(-c5ccc(C(=O)NCC#Cc6cc7c(C8CCC(=O)NC8=O)cccc7o6)nc5)ncc43)nc(N3CC4CC4C3)cc2n(C)c1=O (stereo not shown) [Example B172, 5-(5-(7-(3-azabicyclo[3.1.0]hexan-3-yl)-1,3-dimethyl-2-oxo-1,2-dihydro-1,6-naphthyridin-5-yl)-5,6,7,8-tetrahydropyrido[3,2-d]pyrimidin-2-yl)-N-(3-(4-(2,6-dioxopiperidin-3-yl)benzofuran-2-yl)prop-2-yn-1-yl)picolinamide]
Dmax [2]: > 80%
DC50 [2]: 10 to 99 nM
